Measured values: ChEMBL document CHEMBL1201862, “PubChem BioAssay data set” (2004)
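A five-concentration, 48-hour dose response in 96-well plates underlies each endpoint, interpolated linearly between surrounding concentrations. GI50 = concentration required for 50% inhibition of growth.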 The source made the active and inactive calls. Rule as the data show it: active = GI50 up to about 1.1 µM and inactive = higher.

How the values were obtained:
Assay in all cases: NCI anticancer screen, dose series, 48 h
[1] = test system: MOLT-4
[2] = test system: CAKI-1
[3] = test system: HCT-15
[4] = test system: A549
[5] = test system: COLO 205
[6] = test system: OVCAR-4
[7] = test system: U-251
[8] = test system: IGROV-1
[9] = test system: SNB-19
[10] = test system: UACC-62
[11] = test system: XF498
[12] = test system: SW-620
[13] = test system: A498
[14] = test system: RXF 393
[15] = test system: RXF 631
[16] = test system: M19-MEL
[17] = test system: LXFL 529
[18] = test system: KM12
[19] = test system: SK-MEL-2
[20] = test system: HT-29
[21] = test system: HL-60
[22] = test system: HCC 2998
[23] = test system: EKVX
[24] = test system: SN12C
[25] = test system: SR
[26] = test system: SF-295
[27] = test system: HOP-18
[28] = test system: UACC-257
[29] = test system: SNB-78
[30] = test system: UO-31
[31] = test system: ACHN
[32] = test system: SK-MEL-28
[33] = test system: HCT-116
[34] = test system: OVCAR-8
[35] = test system: SK-OV-3
[36] = test system: NCI-H460
[37] = test system: DLD-1
[38] = test system: K562
[39] = test system: OVCAR-3
[40] = test system: RPMI-8226
[41] = test system: SNB-75
[42] = test system: M14
[43] = test system: NCI-H23
[44] = test system: 786-0
[45] = test system: CCRF-CEM
[46] = test system: SF-539
[47] = test system: KM-20L2
[48] = test system: DMS-114
[49] = test system: HOP-62
[50] = test system: DMS-273
[51] = test system: OVCAR-5
[52] = test system: LOX IMVI
[53] = test system: HOP-92
[54] = test system: NCI-H226
[55] = test system: NCI-H522
[56] = test system: SK-MEL-5
[57] = test system: TK-10
[58] = test system: SF-268
[59] = test system: Malme-3M

**Q.** For `COC1/C(=C\C(=O)OC(C)(C)C)c2ccccc2N1C(C)=O` (stereo not drawn), which GI50 [1] is on record?
**A.** 81.7 µM (inactive)

**Q.** And the GI50 [2]?
**A.** > 100 µM (inactive)

**Q.** And the GI50 [3]?
**A.** > 100 µM

**Q.** And the GI50 [4]?
**A.** > 100 µM (inactive)

**Q.** What about the GI50 [5] of the same compound?
**A.** > 100 µM (inactive)

**Q.** What about the GI50 [6] of the same compound?
**A.** > 100 µM (inactive)

**Q.** And the GI50 [7]?
**A.** > 100 µM (inactive)

**Q.** And the GI50 [8]?
**A.** > 100 µM (inactive)

**Q.** And the GI50 [9]?
**A.** > 100 µM (inactive)

**Q.** What about the GI50 [10] of the same compound?
**A.** > 100 µM (inactive)

**Q.** And the GI50 [11]?
**A.** 57.5 µM (inactive)

**Q.** What about the GI50 [12] of the same compound?
**A.** > 100 µM (inactive)

**Q.** And the GI50 [13]?
**A.** > 100 µM (inactive)

**Q.** And the GI50 [14]?
**A.** 26.6 µM (inactive)

**Q.** And the GI50 [15]?
**A.** > 100 µM (inactive)

**Q.** And the GI50 [16]?
**A.** > 100 µM (inactive)

**Q.** And the GI50 [17]?
**A.** > 100 µM (inactive)

**Q.** What about the GI50 [18] of the same compound?
**A.** 9.53 µM (inactive)

**Q.** And the GI50 [19]?
**A.** > 100 µM (inactive)

**Q.** What about the GI50 [20] of the same compound?
**A.** > 100 µM (inactive)

**Q.** And the GI50 [21]?
**A.** 36.2 µM (inactive)

**Q.** And the GI50 [22]?
**A.** > 100 µM (inactive)

**Q.** What about the GI50 [23] of the same compound?
**A.** > 100 µM (inactive)

**Q.** What about the GI50 [24] of the same compound?
**A.** > 100 µM (inactive)

**Q.** And the GI50 [25]?
**A.** 48 µM (inactive)

**Q.** And the GI50 [26]?
**A.** > 100 µM (inactive)

**Q.** And the GI50 [27]?
**A.** > 100 µM (inactive)

**Q.** And the GI50 [28]?
**A.** > 100 µM (inactive)

**Q.** What about the GI50 [29] of the same compound?
**A.** > 100 µM (inactive)

**Q.** And the GI50 [30]?
**A.** > 100 µM (inactive)

**Q.** And the GI50 [31]?
**A.** > 100 µM (inactive)

**Q.** And the GI50 [32]?
**A.** > 100 µM (inactive)

**Q.** And the GI50 [33]?
**A.** > 100 µM (inactive)

**Q.** What about the GI50 [34] of the same compound?
**A.** > 100 µM (inactive)

**Q.** And the GI50 [35]?
**A.** > 100 µM (inactive)

**Q.** And the GI50 [36]?
**A.** > 100 µM (inactive)

**Q.** And the GI50 [37]?
**A.** > 100 µM (inactive)

**Q.** What about the GI50 [38] of the same compound?
**A.** > 100 µM (inactive)

**Q.** And the GI50 [39]?
**A.** > 100 µM (inactive)

**Q.** What about the GI50 [40] of the same compound?
**A.** 34.8 µM (inactive)

**Q.** And the GI50 [41]?
**A.** > 100 µM (inactive)

**Q.** And the GI50 [42]?
**A.** > 100 µM (inactive)

**Q.** And the GI50 [43]?
**A.** > 100 µM (inactive)

**Q.** And the GI50 [44]?
**A.** > 100 µM (inactive)

**Q.** What about the GI50 [45] of the same compound?
**A.** > 100 µM (inactive)

**Q.** And the GI50 [46]?
**A.** > 100 µM (inactive)

**Q.** What about the GI50 [47] of the same compound?
**A.** > 100 µM (inactive)

**Q.** And the GI50 [48]?
**A.** 54.3 µM (inactive)

**Q.** And the GI50 [49]?
**A.** > 100 µM (inactive)

**Q.** What about the GI50 [50] of the same compound?
**A.** > 100 µM (inactive)

**Q.** For `C/C(=C\CNc1ncnc2c1ncn2C1CCCCO1)COP(=O)(O)O` (stereo not drawn), which GI50 [1] is on record?
**A.** > 100 µM (inactive)

**Q.** And the GI50 [51]?
**A.** > 100 µM (inactive)

**Q.** And the GI50 [2]?
**A.** > 100 µM (inactive)

**Q.** What about the GI50 [52] of the same compound?
**A.** > 100 µM (inactive)

**Q.** And the GI50 [53]?
**A.** > 100 µM (inactive)

**Q.** What about the GI50 [3] of the same compound?
**A.** > 100 µM

**Q.** What about the GI50 [4] of the same compound?
**A.** > 100 µM (inactive)

**Q.** And the GI50 [5]?
**A.** > 100 µM (inactive)

**Q.** And the GI50 [54]?
**A.** > 100 µM (inactive)

**Q.** And the GI50 [6]?
**A.** > 100 µM (inactive)

**Q.** And the GI50 [7]?
**A.** > 100 µM (inactive)

**Q.** What about the GI50 [8] of the same compound?
**A.** > 100 µM (inactive)

**Q.** What about the GI50 [9] of the same compound?
**A.** > 100 µM (inactive)

**Q.** And the GI50 [10]?
**A.** > 100 µM (inactive)

**Q.** What about the GI50 [11] of the same compound?
**A.** > 100 µM (inactive)

**Q.** What about the GI50 [12] of the same compound?
**A.** > 100 µM (inactive)

**Q.** And the GI50 [14]?
**A.** > 100 µM (inactive)

**Q.** What about the GI50 [15] of the same compound?
**A.** > 100 µM (inactive)

**Q.** And the GI50 [55]?
**A.** > 100 µM (inactive)

**Q.** And the GI50 [16]?
**A.** > 100 µM (inactive)

**Q.** What about the GI50 [17] of the same compound?
**A.** > 100 µM (inactive)

**Q.** And the GI50 [56]?
**A.** > 100 µM (inactive)

**Q.** And the GI50 [18]?
**A.** > 100 µM (inactive)

**Q.** What about the GI50 [19] of the same compound?
**A.** > 100 µM (inactive)

**Q.** And the GI50 [20]?
**A.** > 100 µM (inactive)

**Q.** What about the GI50 [21] of the same compound?
**A.** > 100 µM (inactive)

**Q.** And the GI50 [22]?
**A.** > 100 µM (inactive)

**Q.** And the GI50 [57]?
**A.** > 100 µM (inactive)

**Q.** What about the GI50 [23] of the same compound?
**A.** > 100 µM (inactive)

**Q.** And the GI50 [24]?
**A.** > 100 µM (inactive)

**Q.** And the GI50 [58]?
**A.** > 100 µM (inactive)

**Q.** What about the GI50 [25] of the same compound?
**A.** > 100 µM (inactive)

**Q.** And the GI50 [26]?
**A.** > 100 µM (inactive)

**Q.** What about the GI50 [27] of the same compound?
**A.** > 100 µM (inactive)

**Q.** What about the GI50 [28] of the same compound?
**A.** > 100 µM (inactive)

**Q.** And the GI50 [29]?
**A.** > 100 µM (inactive)

**Q.** And the GI50 [30]?
**A.** > 100 µM (inactive)

**Q.** And the GI50 [31]?
**A.** > 100 µM (inactive)

**Q.** What about the GI50 [32] of the same compound?
**A.** > 100 µM (inactive)

**Q.** And the GI50 [33]?
**A.** > 100 µM (inactive)

**Q.** And the GI50 [34]?
**A.** > 100 µM (inactive)

**Q.** What about the GI50 [35] of the same compound?
**A.** > 100 µM (inactive)

**Q.** What about the GI50 [36] of the same compound?
**A.** > 100 µM (inactive)

**Q.** What about the GI50 [37] of the same compound?
**A.** > 100 µM (inactive)

**Q.** What about the GI50 [38] of the same compound?
**A.** > 100 µM (inactive)

**Q.** What about the GI50 [39] of the same compound?
**A.** > 100 µM (inactive)

**Q.** What about the GI50 [40] of the same compound?
**A.** > 100 µM (inactive)

**Q.** What about the GI50 [41] of the same compound?
**A.** > 100 µM (inactive)

**Q.** And the GI50 [42]?
**A.** > 100 µM (inactive)

**Q.** What about the GI50 [43] of the same compound?
**A.** > 100 µM (inactive)

**Q.** What about the GI50 [44] of the same compound?
**A.** > 100 µM (inactive)

**Q.** And the GI50 [45]?
**A.** > 100 µM (inactive)

**Q.** What about the GI50 [59] of the same compound?
**A.** > 100 µM (inactive)

**Q.** What about the GI50 [46] of the same compound?
**A.** > 100 µM (inactive)

**Q.** And the GI50 [47]?
**A.** > 100 µM (inactive)

**Q.** And the GI50 [48]?
**A.** > 100 µM (inactive)

**Q.** And the GI50 [49]?
**A.** > 100 µM (inactive)

**Q.** What about the GI50 [50] of the same compound?
**A.** > 100 µM (inactive)
